Reference: patent publication US10099998B2, “Compound, and separation method, synthesis method and use thereof” (BEIJING PEKING UNIVERSITY WBL BIOTECH CO., LTD., priority 2015, dated 2018)

Target: T1, HMG-CoA reductase (Rattus norvegicus, UniProt P51639)
T1 construct: the male rat liver was removed and rinsed with KESD buffer; from tissue; host or cells: male rat liver microsomes
T1 sequence (P51639 1-887): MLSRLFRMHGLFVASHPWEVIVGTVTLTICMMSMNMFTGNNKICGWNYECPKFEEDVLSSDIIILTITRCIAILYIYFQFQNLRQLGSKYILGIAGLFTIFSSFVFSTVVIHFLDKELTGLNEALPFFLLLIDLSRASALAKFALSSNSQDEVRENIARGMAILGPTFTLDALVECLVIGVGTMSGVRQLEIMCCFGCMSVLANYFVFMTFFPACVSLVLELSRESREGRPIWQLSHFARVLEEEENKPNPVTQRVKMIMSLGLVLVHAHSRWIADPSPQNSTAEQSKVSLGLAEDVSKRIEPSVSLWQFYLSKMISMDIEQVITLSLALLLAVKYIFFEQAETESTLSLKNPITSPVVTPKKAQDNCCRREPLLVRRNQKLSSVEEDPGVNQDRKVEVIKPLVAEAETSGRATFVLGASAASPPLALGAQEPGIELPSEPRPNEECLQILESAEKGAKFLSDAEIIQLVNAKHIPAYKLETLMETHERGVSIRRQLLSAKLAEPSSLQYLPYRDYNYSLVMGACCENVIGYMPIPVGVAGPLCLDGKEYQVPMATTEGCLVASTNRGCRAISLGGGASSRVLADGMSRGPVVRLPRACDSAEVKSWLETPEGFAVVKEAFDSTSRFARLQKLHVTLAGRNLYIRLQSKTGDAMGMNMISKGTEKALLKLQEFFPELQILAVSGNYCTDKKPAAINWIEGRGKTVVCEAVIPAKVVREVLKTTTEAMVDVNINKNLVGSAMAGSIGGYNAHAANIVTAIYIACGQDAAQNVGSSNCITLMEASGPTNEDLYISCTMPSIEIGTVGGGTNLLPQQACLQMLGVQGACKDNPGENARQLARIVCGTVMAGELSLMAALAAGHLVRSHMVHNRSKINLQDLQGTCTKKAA
Assay: Assay on HMG-CoA reductase-inhibiting activity (decreasing rate of OD340)
Format: biochemical
Settings: for Inhibition rate (%): rat liver microsomes, 37° C., pH 6.8; for Slope (decreasing rate of OD340 within 5 min): blank control slope 13.5
Procedure: Rat liver microsomes (HMG-CoA reductase) were commercially purchased, or were prepared by reference to the following method: the male rat liver was removed and rinsed with KESD buffer, and then centrifuged at 12,000 g for 15 min. The supernatant was taken. After centrifugation at 105,000 g for 90 min twice, the centrifuged pellets resulted from centrifugation were collected. To the centrifuged pellets, 8.3% glycerol was added, and the resultant mixture was heated in a 37° C. warm bath for 1 h. The crude product of the rat liver microsomes was purified with saturated ammonium sulfate, and the 35-50% purified fraction was collected. The rat liver microsomes obtained were stored in −80° C. refrigerator.
Compound 5 was dissolved in 75% ethanol solution, at an initial concentration of 8.6 mg/ml, and was subjected to stepwise dilution to obtain 4.3 mg/ml, 2.15 mg/ml. The total volume of the test system was 250 μl, and the concentrations of various ingredients were as follows: 200 mM potassium chloride, 160 mM potassium dihydrogen phosphate, 4 mM ethylenediamine tetra acetic acid, 10 mM dithiothreitol, and the concentrations for the two substrates […] and 3-hydroxy-3-methylglutaryl-coenzyme A were 200 μM and 50 μM, pH 6.8, respectively, wherein 30 μl was added for enzyme, 5 μl was added for the test group, and 5 μl (solvent for dissolving the sample) was added for the control group. The dynamic change in OD340 was determined at 37° C. by Versamax ELISA Microplate Reader. The decreasing rate of OD340 (represented by slope) was measured within 5 min, to evaluate the HMG-CoA reductase activity, and to further evaluate the enzyme-inhibiting activity.

Structure (SMILES)	Inhibition rate (%) (final concentration 80 μg/ml (inhibitor 4.0 mg/ml, 5 μl))	Slope (decreasing rate of OD340 within 5 min) (final concentration 80 μg/ml)	HMG-CoA reductase inhibition, result in words (43-172 μg/ml, dose-response relationship)	Inhibition rate (%) (final concentration 43 μg/ml (inhibitor 2.15 mg/ml, 5 μl))	Slope (decreasing rate of OD340 within 5 min) (final concentration 43 μg/ml)	Inhibition rate (%) (final concentration 86 μg/ml (inhibitor 4.3 mg/ml, 5 μl))	Slope (decreasing rate of OD340 within 5 min) (final concentration 86 μg/ml)	Inhibition rate (%) (final concentration 172 μg/ml (inhibitor 8.6 mg/ml, 5 μl))	Slope (decreasing rate of OD340 within 5 min) (final concentration 172 μg/ml)
CC[C@H](C)C(=O)O[C@H]1C[C@@H](C)C=C2C=C[C@H](C)[C@H](CC[C@@H]3C[C@@H](O)CC(=O)O3)[C@H]21 [lovastatin, reference compound]	39.2	8.2							
COC(=O)CC(O)CC(O)CCC1c2ccc(C)cc2C=CC1C (stereo not drawn) [Compound 5, methyl 7-(2,6-dimethyl-1,2-dihydronaphthalen-1-yl)-3,5-dihydroxyheptanoate]			inhibited the HMG-CoA reductase activity, and exhibited a dose-response relationship	19.2	10.9	33.3	9.0	42.2	7.8
